Measurements reported in BindingDB's records for doi:10.1016/j.bioorg.2016.01.007 (Universiti Teknologi Mara (Uitm), Puncak Alam Campus, 2016).

Biological target: T1, Beta-glucuronidase (Bos taurus, UniProt A3KMY8)
T1 sequence (A3KMY8 whole entry): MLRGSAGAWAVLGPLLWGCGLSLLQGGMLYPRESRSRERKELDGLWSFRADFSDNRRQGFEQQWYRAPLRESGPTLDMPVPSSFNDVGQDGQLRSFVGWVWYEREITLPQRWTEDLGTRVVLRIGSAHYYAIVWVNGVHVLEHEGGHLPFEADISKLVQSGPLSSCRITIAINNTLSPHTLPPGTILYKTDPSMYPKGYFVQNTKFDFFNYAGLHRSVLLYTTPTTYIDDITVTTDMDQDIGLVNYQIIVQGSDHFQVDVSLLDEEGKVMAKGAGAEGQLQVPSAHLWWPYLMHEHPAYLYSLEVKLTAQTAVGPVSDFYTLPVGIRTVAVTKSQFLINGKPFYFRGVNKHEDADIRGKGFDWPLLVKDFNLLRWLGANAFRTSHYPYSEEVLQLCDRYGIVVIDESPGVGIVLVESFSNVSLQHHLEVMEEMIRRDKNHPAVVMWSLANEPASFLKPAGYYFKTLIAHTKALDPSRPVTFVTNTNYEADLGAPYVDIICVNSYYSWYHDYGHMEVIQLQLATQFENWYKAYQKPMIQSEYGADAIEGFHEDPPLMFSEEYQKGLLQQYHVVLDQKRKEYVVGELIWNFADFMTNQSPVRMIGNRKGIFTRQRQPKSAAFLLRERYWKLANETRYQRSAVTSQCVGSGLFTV
Assay: β-Glucuronidase Inhibition Assay
Experimental: The total reaction volume was set at 250 µL. The reaction mixture comprises of 185 µL of 0.1 M acetate buffer, 5 µL of test compound solution, 10 µL of enzyme solution and incubated at 37 °C for 30 min. […] All assays were carried out in triplicate.

| IC50 [µM] | SMILES |
| --- | --- |
| 49.6 | Oc1ccc(-c2nc3ncc(Cl)cc3[nH]2)c(O)c1 [4-(6-Chloro-1H-imidazo[4,5-b]pyridin-2-yl)benzene-1,3-diol (2)] |
| 68.1 | Oc1cccc(-c2nc3ncc(Cl)cc3[nH]2)c1 [3-(6-Chloro-1H-imidazo[4,5-b]pyridin-2-yl)phenol (8)] |
| 114 | COc1ccc(-c2nc3ncc(Cl)cc3[nH]2)c(O)c1 [2-(6-Chloro-1H-imidazo[4,5-b]pyridin-2-yl)-5-methoxyphenol (19)] |
| 52.6 | Oc1ccc(-c2nc3ncc(Cl)cc3[nH]2)cc1 [4-(6-Chloro-1H-imidazo[4,5-b]pyridin-2-yl)phenol (26)] |
| 129 | COc1ccc(O)c(-c2nc3ncc(Cl)cc3[nH]2)c1 [2-(6-Chloro-1H-imidazo[4,5-b]pyridin-2-yl)-4-methoxyphenol (13)] |
